# ChEMBL document CHEMBL1134671, “Novel lead generation through hypothetical pharmacophore three-dimensional database searching: discovery of isoflavonoids as nonsteroidal inhibitors of rat 5 alpha-reductase” (J Med Chem, 2001)
# Molecular target: T1, Steroid 5-alpha-reductase (Rattus norvegicus, UniProt P24008+P31214)
# T1 sequence (P24008 whole entry): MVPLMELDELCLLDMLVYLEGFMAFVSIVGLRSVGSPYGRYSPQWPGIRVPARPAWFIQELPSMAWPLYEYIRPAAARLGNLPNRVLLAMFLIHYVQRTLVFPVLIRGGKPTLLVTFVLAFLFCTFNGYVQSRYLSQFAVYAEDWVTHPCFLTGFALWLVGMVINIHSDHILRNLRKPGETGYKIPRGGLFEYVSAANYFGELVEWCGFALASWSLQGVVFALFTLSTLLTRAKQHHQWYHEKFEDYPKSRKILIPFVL
# T1 sequence (P31214 whole entry): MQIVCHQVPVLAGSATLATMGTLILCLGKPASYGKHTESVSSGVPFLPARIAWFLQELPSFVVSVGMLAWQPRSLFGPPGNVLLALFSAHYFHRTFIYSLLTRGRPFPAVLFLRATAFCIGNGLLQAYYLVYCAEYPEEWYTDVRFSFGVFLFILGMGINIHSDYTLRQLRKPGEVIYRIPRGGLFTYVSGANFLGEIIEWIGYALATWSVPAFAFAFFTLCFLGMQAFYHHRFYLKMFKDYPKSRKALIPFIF
# Test: Inhibitory concentration against rat Steroid 5-alpha-reductase
# Type: protein assay
row,IC50,SMILES
1,26.2 µM,CC(C)(O)C1Cc2c(ccc(-c3coc4cc5c(c(O)c4c3=O)CC(C(C)(C)O)O5)c2O)O1 (stereo not drawn)
2,30.1 µM,COc1ccc(-c2coc3c4c(cc(OC)c3c2=O)OC(C)(C)C=C4)c(OC)c1
3,6.9 µM,CC(C)(O)C1Cc2c(O)ccc(-c3coc4cc(O)cc(O)c4c3=O)c2O1 (stereo not drawn)
4,48.7 µM,COc1cc2c(cc1OC)-c1c(oc3c4c(cc(O)c3c1=O)OC(C)(C)C=C4)CO2
5,23.1 µM,CC(C)(O)C1Cc2c(ccc(-c3coc4cc(O)cc(O)c4c3=O)c2O)O1 (stereo not drawn)
6,15.7 µM,C=C(C)C1Cc2c(cc3occ(-c4ccc(O)cc4O)c(=O)c3c2O)O1 (stereo not drawn)
7,27.4 µM,COc1cc2c(c3occ(-c4ccc(OCc5ccccc5)cc4OCc4ccccc4)c(=O)c13)C=CC(C)(C)O2
8,31 µM,COc1cc2c(c3occ(-c4ccc(OCc5ccccc5)cc4OCc4ccccc4)c(=O)c13)C(=O)CC(C)(C)O2
